Drawing on ChEMBL document CHEMBL1134647, “Design and synthesis of non-peptidic inhibitors for the Syk C-terminal SH2 domain based on structure-based in-silico screening” (J Med Chem, 2001), this text covers IC50 and inhibition for 15 molecules.

Holding throughout (type): functional
For experiment [1], the target named is T1, Tyrosine-protein kinase SYK (Homo sapiens, UniProt P43405). Kind of experiment: Inhibitory activity against Syk C-terminal SH2.
The target of experiment [2] is T1, Tyrosine-protein kinase SYK. Kind of experiment: Inhibitory activity against Syk C-terminal SH2 at 10 mM.
Experiment [3] shares this target. The experiment can be described thus: Inhibitory activity against Syk C-terminal SH2 (at 10 mM).
Experiment [4] shares this target. Kind of experiment: Inhibitory activity against Syk C-terminal SH2 domain in in-silico screening.

By IC50 is commonly meant the midpoint of a concentration-inhibition curve. Higher therefore signals weaker potency. Consider `CC(C)CCCCN(CCCCCC(=O)O)S(=O)(=O)/C=C/c1ccc(NC(=O)[C@H]2CC[C@H](C(C(=O)O)C(=O)O)CC2)cc1`, for which the midpoint of inhibition in experiment [1], the IC50, lay at 69 µM. For `O=C(O)CCCCCN(CCCC1CCCCC1)S(=O)(=O)/C=C/c1ccc(NC(=O)[C@H]2CC[C@@H](C(C(=O)O)C(=O)O)CC2)cc1`, 40 µM corresponded to half-maximal inhibition in experiment [1] (IC50). On the same count and under the same terms, for `O=C(O)C(C(=O)O)C1CCCCC1` the value was 5900 µM. As usually defined, the inhibition is the relative decrease from the control value, in per cent. Lower therefore signals a weak effect. As to `O=C(O)CCNS(=O)(=O)c1ccc(F)cc1`, the inhibition in experiment [2] was found to be 0.9%.

The molecule `CC(C)CCCCN(CCCCCC(=O)O)S(=O)(=O)/C=C/c1ccc(NC(=O)[C@H]2CC[C@@H](C(C(=O)O)C(=O)O)CC2)cc1` showed an IC50 in experiment [1] of 63 µM. `O=C(O)CCCNS(=O)(=O)/C=C/c1ccccc1` registered an inhibition in experiment [2] of 2.3%. The molecule `O=C(O)CCCCCNS(=O)(=O)/C=C/c1ccc(NC(=O)[C@H]2CC[C@H](C(C(=O)O)C(=O)O)CC2)cc1` had a half-maximal inhibitory concentration (IC50) in experiment [1] of 350 µM. Still for that read-out and setting: for `O=C(O)C(C(=O)O)C1CC/C=C\CCC1` (stereo not given) the value was 7700 µM; for `O=C(O)CCCCCN(CCCC1CCCCC1)S(=O)(=O)/C=C/c1ccc(NC(=O)[C@H]2CC[C@H](C(C(=O)O)C(=O)O)CC2)cc1`, 38 µM. In the case of `O=C(O)C(C(=O)O)c1ccccc1`, the midpoint of inhibition in experiment [1], the IC50, lay at 12000 µM.

As to `CC(C)CCCCN(CCCCCC(=O)O)S(=O)(=O)/C=C/c1ccc(NC(=O)C2CC=C(C(C(=O)O)C(=O)O)CC2)cc1` (stereo not given), the half-inhibitory concentration (IC50) in experiment [1] was determined as 71 µM. In the case of `Nc1cccc2c(S(=O)(=O)NCC(=O)O)cccc12`, the inhibition in experiment [2] is 39%.

`O=C(O)CCCCCNS(=O)(=O)/C=C/c1ccccc1` returned an IC50 in experiment [3] of 8000 µM. Regarding `O=C(O)CCCCCN(CCCC1CCCCC1)S(=O)(=O)/C=C/c1ccc(NC(=O)C2CC=C(C(C(=O)O)C(=O)O)CC2)cc1` (stereo not given), the IC50 in experiment [1] was found to be 41 µM. For the molecule `NC(Cc1ccc(CP(=O)(O)O)cc1)C(=O)O` (stereo not given), it took 14000 µM to reach half-maximal inhibition in experiment [4] (IC50).
